# Measurements reported in PubChem BioAssay (NCI).
#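 How tested: cells in 96-well plates exposed to compound for 48 hours at five concentrations. GI50 = concentration required for 50% inhibition of growth. TGI is the concentration that stops growth completely.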
# Tests used:
# Test in all cases: growth of human tumour cells (NCI), 48 h
# SF-268 CNS = test system: SF-268 CNS
# SNB-75 CNS = test system: SNB-75 CNS
# ACHN renal = test system: ACHN renal
# M14 melanoma = test system: M14 melanoma
# SNB-19 CNS = test system: SNB-19 CNS
# OVCAR-4 ovarian = test system: OVCAR-4 ovarian
# DU-145 prostate = test system: DU-145 prostate
# TK-10 renal = test system: TK-10 renal
# UACC-62 melanoma = test system: UACC-62 melanoma
# MDA-MB-435 = test system: MDA-MB-435
# HL-60(TB) leukemia = test system: HL-60(TB) leukemia
# IGROV1 ovarian = test system: IGROV1 ovarian
# MCF7 breast = test system: MCF7 breast
# SK-MEL-5 melanoma = test system: SK-MEL-5 melanoma
# OVCAR-5 ovarian = test system: OVCAR-5 ovarian
# UO-31 renal = test system: UO-31 renal
# EKVX NSCLC = test system: EKVX NSCLC
# NCI-H522 lung = test system: NCI-H522 lung
# NCI-H23 lung = test system: NCI-H23 lung
# HT29 colon = test system: HT29 colon
# CAKI-1 renal = test system: CAKI-1 renal
# SF-295 CNS = test system: SF-295 CNS
# U251 CNS = test system: U251 CNS
# OVCAR-8 ovarian = test system: OVCAR-8 ovarian
# SN12C renal = test system: SN12C renal
# OVCAR-3 ovarian = test system: OVCAR-3 ovarian
# RPMI-8226 leukemia = test system: RPMI-8226 leukemia
# KM12 colon = test system: KM12 colon
# SK-MEL-28 melanoma = test system: SK-MEL-28 melanoma
# SF-539 CNS = test system: SF-539 CNS
# NCI-H226 lung = test system: NCI-H226 lung
# NCI/ADR-RES ovarian = test system: NCI/ADR-RES ovarian
# K-562 leukemia = test system: K-562 leukemia
# NCI-H460 lung = test system: NCI-H460 lung
# RXF 393 renal = test system: RXF 393 renal
# UACC-257 melanoma = test system: UACC-257 melanoma
# COLO 205 colon = test system: COLO 205 colon
# LOX IMVI melanoma = test system: LOX IMVI melanoma
# HOP-62 NSCLC = test system: HOP-62 NSCLC
# SK-OV-3 ovarian = test system: SK-OV-3 ovarian
# HCC-2998 colon = test system: HCC-2998 colon
# T-47D breast = test system: T-47D breast
# SR leukemia = test system: SR leukemia
# CCRF-CEM leukemia = test system: CCRF-CEM leukemia
# HS 578T breast = test system: HS 578T breast
# BT-549 breast = test system: BT-549 breast
# PC-3 prostate = test system: PC-3 prostate
# SW-620 colon = test system: SW-620 colon
# MDA-MB-231 breast = test system: MDA-MB-231 breast
# HCT-15 colon = test system: HCT-15 colon
# MALME-3M melanoma = test system: MALME-3M melanoma
# HCT-116 colon = test system: HCT-116 colon
# MOLT-4 leukemia = test system: MOLT-4 leukemia
# 786-0 renal = test system: 786-0 renal
# A549 NSCLC = test system: A549 NSCLC
smiles,measurement,setting,value
CCCCCCCCCC(CCCC(O)CC(=O)O)OC1OC(COC2OC(C)C(OC(C)=O)C(O)C2O)C(O)C(O)C1OC1OC(CO)C(O)C(O)C1OC1OC(C)C(OC(=O)CC(C)C)C(O)C1O (stereo not given),GI50,SF-268 CNS,> 35 µM
same,TGI,SF-268 CNS,> 35 µM
same,GI50,SNB-75 CNS,> 35 µM
same,TGI,SNB-75 CNS,> 35 µM
same,GI50,ACHN renal,> 35 µM
same,TGI,ACHN renal,> 35 µM
same,GI50,M14 melanoma,> 35 µM
same,TGI,M14 melanoma,> 35 µM
same,GI50,SNB-19 CNS,> 35 µM
same,TGI,SNB-19 CNS,> 35 µM
same,GI50,OVCAR-4 ovarian,> 35 µM
same,TGI,OVCAR-4 ovarian,> 35 µM
same,GI50,DU-145 prostate,> 35 µM
same,TGI,DU-145 prostate,> 35 µM
same,GI50,TK-10 renal,> 35 µM
same,TGI,TK-10 renal,> 35 µM
same,GI50,UACC-62 melanoma,> 35 µM
same,TGI,UACC-62 melanoma,> 35 µM
same,GI50,MDA-MB-435,> 35 µM
same,TGI,MDA-MB-435,> 35 µM
same,GI50,HL-60(TB) leukemia,> 35 µM
same,TGI,HL-60(TB) leukemia,> 35 µM
same,GI50,IGROV1 ovarian,> 35 µM
same,TGI,IGROV1 ovarian,> 35 µM
same,GI50,MCF7 breast,> 35 µM
same,TGI,MCF7 breast,> 35 µM
same,GI50,SK-MEL-5 melanoma,> 35 µM
same,TGI,SK-MEL-5 melanoma,> 35 µM
same,GI50,OVCAR-5 ovarian,> 35 µM
same,TGI,OVCAR-5 ovarian,> 35 µM
same,GI50,UO-31 renal,> 35 µM
same,TGI,UO-31 renal,> 35 µM
same,GI50,EKVX NSCLC,> 35 µM
same,TGI,EKVX NSCLC,> 35 µM
same,GI50,NCI-H522 lung,> 35 µM
same,TGI,NCI-H522 lung,> 35 µM
same,GI50,NCI-H23 lung,> 35 µM
same,TGI,NCI-H23 lung,> 35 µM
same,GI50,HT29 colon,> 35 µM
same,TGI,HT29 colon,> 35 µM
same,GI50,CAKI-1 renal,> 35 µM
same,TGI,CAKI-1 renal,> 35 µM
same,GI50,SF-295 CNS,> 35 µM
same,TGI,SF-295 CNS,> 35 µM
same,GI50,U251 CNS,> 35 µM
same,TGI,U251 CNS,> 35 µM
same,GI50,OVCAR-8 ovarian,> 35 µM
same,TGI,OVCAR-8 ovarian,> 35 µM
same,GI50,SN12C renal,> 35 µM
same,TGI,SN12C renal,> 35 µM
same,GI50,OVCAR-3 ovarian,> 35 µM
same,TGI,OVCAR-3 ovarian,> 35 µM
same,GI50,RPMI-8226 leukemia,> 35 µM
same,TGI,RPMI-8226 leukemia,> 35 µM
same,GI50,KM12 colon,> 35 µM
same,TGI,KM12 colon,> 35 µM
same,GI50,SK-MEL-28 melanoma,> 35 µM
same,TGI,SK-MEL-28 melanoma,> 35 µM
same,GI50,SF-539 CNS,> 35 µM
same,TGI,SF-539 CNS,> 35 µM
same,GI50,NCI-H226 lung,> 35 µM
same,TGI,NCI-H226 lung,> 35 µM
same,GI50,NCI/ADR-RES ovarian,> 35 µM
same,TGI,NCI/ADR-RES ovarian,> 35 µM
same,GI50,K-562 leukemia,> 35 µM
same,TGI,K-562 leukemia,> 35 µM
same,GI50,NCI-H460 lung,> 35 µM
same,TGI,NCI-H460 lung,> 35 µM
same,GI50,RXF 393 renal,> 35 µM
same,TGI,RXF 393 renal,> 35 µM
same,GI50,UACC-257 melanoma,> 35 µM
same,TGI,UACC-257 melanoma,> 35 µM
same,GI50,COLO 205 colon,> 35 µM
same,TGI,COLO 205 colon,> 35 µM
same,GI50,LOX IMVI melanoma,> 35 µM
same,TGI,LOX IMVI melanoma,> 35 µM
same,GI50,HOP-62 NSCLC,> 35 µM
same,TGI,HOP-62 NSCLC,> 35 µM
same,GI50,SK-OV-3 ovarian,> 35 µM
same,TGI,SK-OV-3 ovarian,> 35 µM
same,GI50,HCC-2998 colon,> 35 µM
same,TGI,HCC-2998 colon,> 35 µM
same,GI50,T-47D breast,> 35 µM
same,TGI,T-47D breast,> 35 µM
same,GI50,SR leukemia,> 35 µM
same,TGI,SR leukemia,> 35 µM
same,GI50,CCRF-CEM leukemia,> 35 µM
same,TGI,CCRF-CEM leukemia,> 35 µM
same,GI50,HS 578T breast,> 35 µM
same,TGI,HS 578T breast,> 35 µM
same,GI50,BT-549 breast,> 35 µM
same,TGI,BT-549 breast,> 35 µM
same,GI50,PC-3 prostate,> 35 µM
same,TGI,PC-3 prostate,> 35 µM
same,GI50,SW-620 colon,> 35 µM
same,TGI,SW-620 colon,> 35 µM
same,GI50,MDA-MB-231 breast,> 35 µM
same,TGI,MDA-MB-231 breast,> 35 µM
same,GI50,HCT-15 colon,> 35 µM
same,TGI,HCT-15 colon,> 35 µM
same,GI50,MALME-3M melanoma,> 35 µM
same,TGI,MALME-3M melanoma,> 35 µM
same,GI50,HCT-116 colon,> 35 µM
same,TGI,HCT-116 colon,> 35 µM
same,GI50,MOLT-4 leukemia,> 35 µM
same,TGI,MOLT-4 leukemia,> 35 µM
same,GI50,786-0 renal,> 35 µM
same,TGI,786-0 renal,> 35 µM
same,GI50,A549 NSCLC,> 35 µM
same,TGI,A549 NSCLC,> 35 µM
